Measurements published in US9873702B2, “Heterocyclic compounds as biogenic amine transport modulators” (Southern Research Institute, priority 2014, dated 2018).
Where two headings read alike, the source gives them in different places.

Columns and labels:
[1] = biological target: norepinephrine transporter (NET) (Rattus norvegicus, UniProt Q9WTR4); assay: Norepinephrine reuptake ([^3H]norepinephrine uptake) inhibition in rat brain synaptosomes; settings: for NE Uptake Emax (% I ± SD): maximal inhibition from dose-response fit
Protocol: Freshly removed whole brain minus cerebellum and caudate was homogenized in 10% ice-cold sucrose with 12 strokes of a hand-held Potter-Elvehjem homogenizer followed by centrifugation at 1000×g for 10 minutes. The supernatants were saved on ice and used immediately. Transporter activity at NET was assessed using 10 nM [^3H]norepinephrine. […] Uptake inhibition assays were conducted at 37° C. and were initiated by adding 100 μL of tissue to 900 μL assay buffer containing test drug and [^3H]norepinephrine. Test drugs were diluted in assay buffer containing 1 mg/mL bovine serum albumin. Nonspecific uptake was measured by incubating in the presence of 10 μM indatraline. The reactions were stopped after 10 minutes by rapid vacuum filtration with a cell harvester (BRANDEL) over GF/B filters (Whatman) presoaked in wash buffer maintained at 25° C. (10 mM Tris-HCl, pH 7.4/150 mM NaCl). Filters were rinsed with 6 mL wash buffer and retained tritium was quantified by a MicroBeta liquid scintillation counter (PerkinElmer) after overnight extraction in 0.6 mL of liquid scintillation cocktail (Cytoscint, ICN). The data from three experiments were pooled and fit to a dose-response curve equation (using Kaleidagraph), to yield an Emax and EC50 value.
(§1) The data from three experiments were pooled and fit to a dose-response curve equation (using KaleidaGraph; Synergy Software, Reading, Pa.) to yield an Emax and IC50 value.

DAT = biological target: T1, DAT (Rattus norvegicus, UniProt P23977); assay: Dopamine transporter binding, inhibition of [^3H]WIN35428 binding in rat caudate membranes; settings: 2 h; read-out: DAT Binding εmax
T1 construct: from tissue; host or cells: rat caudate membranes
Protocol: The ability of test drugs to inhibit [^3H]WIN35428 binding to DAT in rat caudate membranes was assessed as follows. For each experiment, caudates from four rat brains were suspended in 15 mL ice cold assay buffer (50 mM sodium phosphate pH 7.4) and homogenized using a polytron (setting 6, 20 sec). The homogenate was centrifuged at 30,000×g for 10 minutes at 4° C. The pellet was resuspended with vigorous vortexing in 15 mL fresh ice cold assay buffer, and the centrifugation was repeated. The pellet was resuspended in 15 mL fresh ice cold assay buffer with vigorous vortexing followed by six strokes with a glass-on-glass hand-held homogenizer and was diluted to a final volume of 235 mL in ice cold assay buffer. [^3H]WIN35428 was diluted to 10 nM in assay buffer that contained 25 μg/mL chymostatin, 25 μg/mL leupeptin, 0.1 mM EDTA, and 0.1 mM EGTA. Each assay tube contained 0.75 mL membrane preparation, 0.15 mL test drug diluted in assay buffer containing 1 mg/mL bovine serum albumin, and 0.1 mL [^3H]WIN35428 preparation (final concentration of 1 nM). Assays were initiated by the addition of membranes and were terminated after 2 hours at 25° C. by rapid vacuum filtration. Retained tritium was measured as described. The data from three experiments were pooled and fit to a dose-response curve equation (using Kaleidagraph), to yield an Emax and EC50 value.

[2] = biological target: dopamine transporter (DAT) (Rattus norvegicus, UniProt P23977); assay: Dopamine reuptake ([^3H]dopamine uptake) inhibition in rat brain synaptosomes; settings: for IC50: DAT Uptake IC50, [3H]DA uptake inhibition, mean ± S.D., n = 3; for Emax: read-out: DAT Uptake Emax
Protocol: Freshly removed caudate was homogenized in 10% ice-cold sucrose with 12 strokes of a hand-held Potter-Elvehj em homogenizer followed by centrifugation at 1000×g for 10 min. The supernatants were saved on ice and used immediately. Transporter activity was assessed using 5 nM [^3H]dopamine. […] The selectivity of the uptake assay for dopamine active transporter (DAT) was optimized by including 100 nM citalopram and 100 nM desipramine as blockers of serotonin transporter (SERT) and norepinephrine transporter (NET) in the sucrose solution and assay buffer. Uptake inhibition assays were conducted at 25° C. and were initiated by adding 100 μl of tissue to 900 μL assay buffer containing test drug and [^3H]dopamine. Test drugs were diluted in assay buffer containing 1 mg/mL bovine serum albumin. Nonspecific uptake was measured by incubating in the presence of 10 μM indatraline. The reactions were stopped after 15 minutes by rapid vacuum filtration with a cell harvester (BRANDEL) over GF/B filters (Whatman) presoaked in wash buffer maintained at 25° C. (10 mM Tris-HCl, pH 7.4/150 mM NaCl). Filters were rinsed with 6 mL wash buffer and retained tritium was quantified by a MicroBeta liquid scintillation counter (PerkinElmer) after overnight extraction in 0.6 mL of liquid scintillation cocktail (Cytoscint, ICN). The data from three experiments were pooled and fit to a dose-response curve equation (using Kaleidagraph), to yield an Emax and EC50 value.
as §1

[3] = biological target: T2, serotonin transporter (SERT) (Rattus norvegicus, UniProt P31652); assay: Serotonin reuptake ([^3H]serotonin uptake) inhibition in rat brain synaptosomes; assay type: biochemical; settings: mean ± S.D., n = 3; for Emax: read-out: SERT Uptake Emax; for IC50: read-out: SERT Uptake IC50
T2 construct: Freshly removed whole brain minus cerebellum and caudate was homogenized; from tissue; host or cells: rat whole brain minus cerebellum and caudate, synaptosomes

[4] = rat brain synaptosomes, 10 nM [^3H]norepinephrine
[5] = read-out: NE Uptake EC50 (nM ± SD), rat brain synaptosomes, 10 nM [^3H]norepinephrine, 10 min, 37° C.
[6] = read-out: NET Uptake IC50, mean ± S.D., n = 3

T2 sequence (P31652 whole entry): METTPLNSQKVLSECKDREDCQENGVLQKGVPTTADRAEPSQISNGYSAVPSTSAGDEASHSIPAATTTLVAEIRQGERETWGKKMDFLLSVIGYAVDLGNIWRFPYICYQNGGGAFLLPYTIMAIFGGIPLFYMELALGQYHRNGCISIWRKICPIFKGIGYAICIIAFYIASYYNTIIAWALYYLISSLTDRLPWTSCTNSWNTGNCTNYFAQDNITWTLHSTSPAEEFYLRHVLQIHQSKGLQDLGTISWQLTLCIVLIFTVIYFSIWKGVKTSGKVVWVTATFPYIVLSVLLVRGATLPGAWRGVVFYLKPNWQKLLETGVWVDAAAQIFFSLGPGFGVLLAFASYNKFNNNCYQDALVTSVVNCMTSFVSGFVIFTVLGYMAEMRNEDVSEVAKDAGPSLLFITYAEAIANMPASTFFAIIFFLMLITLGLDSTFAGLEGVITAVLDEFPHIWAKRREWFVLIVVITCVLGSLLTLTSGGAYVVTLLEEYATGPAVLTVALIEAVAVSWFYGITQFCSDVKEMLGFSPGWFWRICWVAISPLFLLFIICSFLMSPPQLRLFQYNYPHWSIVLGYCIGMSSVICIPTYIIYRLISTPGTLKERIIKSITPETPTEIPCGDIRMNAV
Sequence of dopamine transporter (DAT) (P23977 whole entry): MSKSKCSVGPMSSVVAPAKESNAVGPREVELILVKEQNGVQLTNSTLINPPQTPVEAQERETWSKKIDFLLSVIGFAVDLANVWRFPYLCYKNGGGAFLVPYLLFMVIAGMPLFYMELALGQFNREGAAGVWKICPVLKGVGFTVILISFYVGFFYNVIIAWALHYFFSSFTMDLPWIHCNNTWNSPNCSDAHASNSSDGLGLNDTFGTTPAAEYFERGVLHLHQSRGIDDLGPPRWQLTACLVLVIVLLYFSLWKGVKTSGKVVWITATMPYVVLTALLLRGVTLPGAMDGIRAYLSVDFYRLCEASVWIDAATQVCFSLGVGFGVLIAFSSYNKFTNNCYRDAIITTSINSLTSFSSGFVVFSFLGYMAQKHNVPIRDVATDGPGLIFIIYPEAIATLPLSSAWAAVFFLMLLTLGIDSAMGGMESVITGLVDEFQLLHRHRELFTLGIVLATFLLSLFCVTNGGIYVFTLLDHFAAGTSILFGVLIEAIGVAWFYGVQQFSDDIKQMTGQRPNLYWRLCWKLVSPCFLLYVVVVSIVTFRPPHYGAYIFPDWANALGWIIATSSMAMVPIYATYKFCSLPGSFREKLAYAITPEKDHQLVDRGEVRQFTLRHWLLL
T1 sequence (P23977 whole entry): as above

NET Uptake Emax ([1]; mean ± S.D., n = 3) [%] | NE Uptake Emax (% I ± SD) [1, 4] [% I] | IC50 [1, 5] [nM] | IC50 [1, 6] [nM] | Emax (DAT) [%] | IC50 [2] [nM] | Emax [2] [%] | Emax [3] [%] | IC50 [3] [nM] | Structure (SMILES)
62 ± 3 | 62 ± 3 | 204 ± 47 | 204 ± 47 | 63 ± 4 | 9 ± 1.5 | 71 ± 2 | 52 ± 3 | 56 ± 21 | CSc1ncc(-c2nc(NCC(c3ccccc3)c3ccccc3)c3ccccc3n2)cn1 [compound 30, N-(2,2-Diphenylethyl)-2-(2-(Methylthio)Pyrimidin-5-yl)Quinazolin-4-Amine]
75 ± 3 | 75 ± 3 | 78 ± 17 | 78 ± 17 | 44 ± 3 | 21 ± 3 | 70 ± 2 | 59 ± 3 | 35 ± 11 | c1ccc(C(CNc2nc(-c3ccc4nccn4c3)nc3ccccc23)c2cccnc2)cc1 (stereo not drawn) [compound 131, 2-(Imidazo[1,2-A]Pyridin-6-yl)-N-(2-Phenyl-2-(Pyridin-3-yl)Ethyl)Quinazolin-4-Amine]
65 ± 4 | 65 ± 4 | 153 ± 55 | 153 ± 55 | 50 ± 4 | 12 ± 2 | 72 ± 2 | 59 ± 4 | 83 ± 28 | c1ccc(C(CNc2nc(-c3ccc4nccn4c3)nc3ccccc23)C2CCCCC2)cc1 (stereo not drawn) [compound 100, N-(2-Cyclohexyl-2-Phenylethyl)-2-(Imidazo[1,2-A]Pyridin-6-yl)Quinazolin-4-Amine]
73 ± 6 | 73 ± 6 | 203 ± 79 | 203 ± 79 | 55 ± 3 | 11 ± 2 | 70 ± 2 | 57 ± 2 | 35 ± 9 | OC(CNc1nc(-c2ccc3[nH]ccc3c2)nc2ccccc12)(c1ccccc1)c1ccccc1 [compound 81, 2-((2-(1H-Indol-5-yl)Quinazolin-4-yl)Amino)-1,1-Diphenylethanol]
70 ± 2 |  |  | 426 ± 49 | 47 ± 7 | 11 ± 2 |  |  | 50 ± 14 | CS(=O)(=O)Nc1ccc(-c2nc(NCC(O)(c3ccccc3)c3ccccc3)c3ccccc3n2)cc1 [SRI-30504]
77 ± 2 | 77 ± 2 | 132 ± 16 | 132 ± 16 | 62 ± 7 | 18 ± 3 | 71 ± 2 | 54 ± 2 | 28 ± 6 | c1ccc(C(CNc2nc(-c3cnc4nccn4c3)nc3ccccc23)c2ccccn2)cc1 (stereo not drawn) [compound 98, 2-(Imidazo[1,2-A]Pyrimidin-6-yl)-N-(2-Phenyl-2-(Pyridin-2-yl)Ethyl)Quinazolin-4-Amine]
67 ± 2 |  |  | 47 ± 10 | 30 ± 3 | 11 ± 1 |  |  | 22 ± 5 | CS(=O)(=O)Nc1ccc(-c2nc(NCC(c3ccccc3)c3ccccc3)c3ccccc3n2)c(Cl)c1 [SRI-31043]
78 ± 2 | 78 ± 2 | 179 ± 27 | 179 ± 27 | 59 ± 6 | 11 ± 1 | 71 ± 1 | 60 ± 3 | 57 ± 18 | CNc1ncc(-c2nc(NCC(c3ccccc3)c3ccccc3)c3ccccc3n2)cn1 [compound 41, N-(2,2-Diphenylethyl)-2-(2-(Methylamino)Pyrimidin-5-yl)Quinazolin-4-Amine]
76 ± 9 | 76 ± 3 | 69 ± 18 | 69 ± 18 | 34 ± 3 | 9.3 ± 1.1 | 65 ± 1 | 56 ± 1 | 3.9 ± 0.4 | OC(CNc1nc(-c2cnc3nccn3c2)nc2ccccc12)(c1ccccc1)c1ccccc1 [compound 99, 2-((2-(Imidazo[1,2-A]Pyrimidin-6-yl)Quinazolin-4-yl)Amino)-1,1-Diphenylethanol]
71 ± 3 |  |  | 31 ± 7 | 72 ± 7 | 7.4 ± 2 |  |  | 8 ± 2.8 | Cc1cc(NS(C)(=O)=O)ccc1-c1nc(NCC(c2ccccc2)c2ccncc2)c2ccccc2n1 (stereo not drawn) [SRI-31039]
